In patent US5750361A (priority 1995, dated 1998):
“Also recorded” adds a separate entry of the source. Where a name gives a salt, the structure may show the parent alone.

Assays:
[^35 S-]PrP^C = assay type: biochemical, Syrian hamster
proteinase K = assay type: biochemical
[^35 S-]SHaPrP^C = [^35 S-]SHaPrP^C (Mesocricetus auratus, UniProt P04273); assay type: biochemical
Sequence of [^35 S-]SHaPrP^C (P04273 23-254 limits assumed): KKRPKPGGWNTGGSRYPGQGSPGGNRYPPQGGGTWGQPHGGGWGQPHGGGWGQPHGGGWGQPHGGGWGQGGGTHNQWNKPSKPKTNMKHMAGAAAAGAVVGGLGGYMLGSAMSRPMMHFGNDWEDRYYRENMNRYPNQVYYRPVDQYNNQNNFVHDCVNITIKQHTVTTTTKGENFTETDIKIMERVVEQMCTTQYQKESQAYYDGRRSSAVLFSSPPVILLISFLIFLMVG

Row | SMILES | Requirement of Gdn-HCl for complex formation ([^35 S-]PrP^C) | Reduction of proteinase K activity (proteinase K) | Effect of Sarkosyl on PrP^C /PrP peptide complexes ([^35 S-]SHaPrP^C)
1 | N=C(N)N [Gdn-HCl, guanidine hydrochloride] | seemed to be essential | ~ 90% | 
2 | CCCCCCCCCCCC(=O)N(C)CC(=O)O [Sarkosyl] |  |  | disrupted the prion protein complexes and rendered the PrP^C sensitive to protease activity; also recorded: disrupted the PrP^C /PrP peptide complexes and rendered the PrP^C sensitive to protease activity
